Results taken from US11447466B2, “Substituted indole compounds useful as inhibitors of TLR7/8/9” (BRISTOL-MYERS SQUIBB COMPANY, priority 2017, dated 2022).

Tests used:
Type in all cases: cell-based
human TLR7 = molecular target: T1, human TLR7 (Homo sapiens, UniProt Q9NYK1); experiment: TLR7 inhibition reporter assay (HEK-Blue SEAP reporter, gardiquimod stimulation); conditions: HEK-Blue cells overexpressing human TLR7, SEAP reporter, gardiquimod 7.5 μM, 22 hour incubation
T1 construct: host or cells: HEK-Blue cells
T1 sequence (Q9NYK1 27-1049): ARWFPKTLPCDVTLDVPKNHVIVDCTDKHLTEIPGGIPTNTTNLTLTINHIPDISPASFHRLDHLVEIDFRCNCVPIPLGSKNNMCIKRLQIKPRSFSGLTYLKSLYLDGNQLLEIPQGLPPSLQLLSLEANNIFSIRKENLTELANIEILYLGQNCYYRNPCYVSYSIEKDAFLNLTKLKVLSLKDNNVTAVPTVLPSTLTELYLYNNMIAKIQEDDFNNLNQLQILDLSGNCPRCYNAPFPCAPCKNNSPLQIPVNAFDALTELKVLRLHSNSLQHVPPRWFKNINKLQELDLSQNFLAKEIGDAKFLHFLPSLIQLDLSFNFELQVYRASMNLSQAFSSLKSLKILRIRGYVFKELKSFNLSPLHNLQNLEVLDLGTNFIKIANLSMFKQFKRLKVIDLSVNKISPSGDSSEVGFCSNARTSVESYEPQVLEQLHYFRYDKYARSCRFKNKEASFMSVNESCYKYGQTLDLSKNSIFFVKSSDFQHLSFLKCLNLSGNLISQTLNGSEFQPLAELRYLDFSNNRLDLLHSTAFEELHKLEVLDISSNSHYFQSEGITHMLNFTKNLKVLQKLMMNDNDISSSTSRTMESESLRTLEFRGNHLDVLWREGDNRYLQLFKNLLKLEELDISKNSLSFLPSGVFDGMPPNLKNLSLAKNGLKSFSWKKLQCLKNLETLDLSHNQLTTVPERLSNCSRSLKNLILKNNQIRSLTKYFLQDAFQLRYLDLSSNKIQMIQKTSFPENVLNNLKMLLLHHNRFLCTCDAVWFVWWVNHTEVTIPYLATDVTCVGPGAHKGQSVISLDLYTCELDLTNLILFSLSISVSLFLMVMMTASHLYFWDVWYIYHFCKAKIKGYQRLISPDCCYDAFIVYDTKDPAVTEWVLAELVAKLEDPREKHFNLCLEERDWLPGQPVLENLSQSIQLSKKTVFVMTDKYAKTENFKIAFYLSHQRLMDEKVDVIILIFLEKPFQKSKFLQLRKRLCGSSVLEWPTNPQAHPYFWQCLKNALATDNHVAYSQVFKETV
Protocol: (§1) TLR7/8/9 Inhibition Reporter Assays
(§2) HEK-Blue™-cells (Invivogen) overexpressing human TLR7, TLR8 or TLR9 receptors were used for screening inhibitors of these receptors using an inducible SEAP (secreted embryonic alkaline phosphatase) reporter gene under the control of the IFN-β minimal promoter fused to five NF-κB and AP-1-binding sites. Briefly, cells are seeded into Greiner 384 well plates (15000 cells per well for TLR7, 20,000 for TLR8 and 25,000 for TLR9) and then treated with test compounds in DMSO to yield a final dose response concentration range of 0.05 nM-50 μM. After a 30 minute compound pre-treatment at room temperature, the cells are then stimulated with a TLR7 ligand (gardiquimod at a final concentration of 7.5 μM), TLR8 ligand (R848 at a final concentration of 15.9 μM) or TLR9 ligand (ODN2006 at a final concentration of 5 nM) to activate NF-κB and AP-1 which induce the production of SEAP. After a 22 hour incubation at 37° C., 5% CO2, SEAP levels are determined with the addition of HEK-Blue™ Detection reagent (Invivogen), a cell culture medium that allows for detection of SEAP, according to manufacturer's specifications. The percent inhibition is determined as the % reduction in the HEK-Blue signal present in wells treated with agonist plus DMSO alone compared to wells treated with a known inhibitor.

human TLR8 = molecular target: T2, human TLR8 (Homo sapiens, UniProt Q9NR97); experiment: TLR8 inhibition reporter assay (HEK-Blue SEAP reporter, R848 stimulation); conditions: HEK-Blue cells overexpressing human TLR8, SEAP reporter, R848 15.9 μM, 22 hour incubation
T2 construct: host or cells: HEK-Blue cells
T2 sequence (Q9NR97 27-1041): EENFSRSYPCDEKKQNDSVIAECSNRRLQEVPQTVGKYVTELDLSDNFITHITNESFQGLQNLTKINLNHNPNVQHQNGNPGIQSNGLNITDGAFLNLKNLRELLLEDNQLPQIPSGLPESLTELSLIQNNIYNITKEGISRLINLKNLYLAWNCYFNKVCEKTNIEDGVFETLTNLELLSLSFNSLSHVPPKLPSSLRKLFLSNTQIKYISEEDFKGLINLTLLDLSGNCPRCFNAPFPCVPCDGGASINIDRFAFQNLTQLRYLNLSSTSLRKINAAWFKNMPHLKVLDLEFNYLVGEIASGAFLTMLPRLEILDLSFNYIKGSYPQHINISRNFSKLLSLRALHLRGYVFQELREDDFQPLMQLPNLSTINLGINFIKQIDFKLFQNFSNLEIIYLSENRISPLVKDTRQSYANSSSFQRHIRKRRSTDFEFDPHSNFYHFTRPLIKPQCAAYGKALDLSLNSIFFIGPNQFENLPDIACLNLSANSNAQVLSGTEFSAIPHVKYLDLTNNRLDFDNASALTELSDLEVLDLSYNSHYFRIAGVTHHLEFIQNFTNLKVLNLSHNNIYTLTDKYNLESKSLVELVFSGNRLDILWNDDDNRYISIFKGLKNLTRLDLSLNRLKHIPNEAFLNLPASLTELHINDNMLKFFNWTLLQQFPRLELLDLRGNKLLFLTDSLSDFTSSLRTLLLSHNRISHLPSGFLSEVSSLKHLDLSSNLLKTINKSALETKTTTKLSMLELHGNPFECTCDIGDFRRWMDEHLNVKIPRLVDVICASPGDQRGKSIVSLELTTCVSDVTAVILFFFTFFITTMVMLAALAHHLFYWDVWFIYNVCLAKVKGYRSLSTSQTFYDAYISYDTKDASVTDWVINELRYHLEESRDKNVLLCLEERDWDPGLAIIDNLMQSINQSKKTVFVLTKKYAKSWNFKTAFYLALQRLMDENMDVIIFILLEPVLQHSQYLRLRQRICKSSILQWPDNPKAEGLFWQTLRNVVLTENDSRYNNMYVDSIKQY
Protocol: as §1, §2

human TLR9 = molecular target: T3, human TLR9 (Homo sapiens, UniProt Q9NR96); experiment: TLR9 inhibition reporter assay (HEK-Blue SEAP reporter, ODN2006 stimulation); conditions: HEK-Blue cells overexpressing human TLR9, SEAP reporter, ODN2006 5 nM, 22 hour incubation
T3 construct: host or cells: HEK-Blue cells
T3 sequence (Q9NR96 26-1032): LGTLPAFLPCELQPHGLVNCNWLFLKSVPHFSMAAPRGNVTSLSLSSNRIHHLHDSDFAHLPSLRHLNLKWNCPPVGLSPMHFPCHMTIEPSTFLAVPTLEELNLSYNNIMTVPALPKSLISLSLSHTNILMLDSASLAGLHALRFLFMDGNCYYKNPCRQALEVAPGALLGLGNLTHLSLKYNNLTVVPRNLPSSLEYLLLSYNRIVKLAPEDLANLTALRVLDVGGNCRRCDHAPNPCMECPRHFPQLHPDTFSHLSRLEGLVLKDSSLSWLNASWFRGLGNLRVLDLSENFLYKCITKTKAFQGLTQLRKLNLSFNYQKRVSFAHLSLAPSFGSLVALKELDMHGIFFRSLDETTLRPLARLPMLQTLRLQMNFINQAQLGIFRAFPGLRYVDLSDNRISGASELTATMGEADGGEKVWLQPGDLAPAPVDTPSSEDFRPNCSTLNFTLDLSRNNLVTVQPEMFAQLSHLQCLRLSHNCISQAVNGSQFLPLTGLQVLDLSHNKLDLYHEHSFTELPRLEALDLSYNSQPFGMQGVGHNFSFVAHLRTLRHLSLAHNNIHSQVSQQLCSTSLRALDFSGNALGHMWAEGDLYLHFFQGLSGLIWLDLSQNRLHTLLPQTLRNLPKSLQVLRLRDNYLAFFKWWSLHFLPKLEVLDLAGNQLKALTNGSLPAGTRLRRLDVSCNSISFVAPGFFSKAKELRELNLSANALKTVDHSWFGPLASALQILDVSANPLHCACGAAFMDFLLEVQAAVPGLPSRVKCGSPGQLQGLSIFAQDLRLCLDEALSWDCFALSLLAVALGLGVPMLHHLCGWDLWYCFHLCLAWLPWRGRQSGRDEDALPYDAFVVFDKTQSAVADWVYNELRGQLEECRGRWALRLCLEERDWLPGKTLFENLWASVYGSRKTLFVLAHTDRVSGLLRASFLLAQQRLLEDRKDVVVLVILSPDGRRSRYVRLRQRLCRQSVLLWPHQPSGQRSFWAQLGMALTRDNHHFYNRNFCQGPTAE
Protocol: as §1, §2

Compound	IC50 (human TLR7) [nM]	IC50 (human TLR8) [nM]	IC50 (human TLR9) [µM]
CCCN1CCC(c2ccc3[nH]c(-c4cn(C)c(=O)c(-c5cnn(C)c5)c4C)c(C(C)C)c3c2)CC1 [Example 333, 5-(3-isopropyl-5-(1-propylpiperidin-4-yl)-1H-indol-2-yl)-1,4-dimethyl-3-(1-methyl-1H-pyrazol-4-yl)pyridin-2(1H)-one]	92.2	11.1	3.01
Cc1cc(-c2[nH]c3ccc(C4CCN(C5CCC(C(F)(F)F)CC5)CC4)cc3c2C(C)C)cn(C)c1=O (centres unmarked) [Example 230, 5-(3-isopropyl-5-(1-(4-(trifluoromethyl)cyclohexyl)piperidin-4-yl)-1H-indol-2-yl)-1,3-dimethylpyridin-2(1H)-one]	11.2	23.1	5.51
CNC(=O)CN1CCC(c2ccc3[nH]c(-c4cc(C)c(=O)n(CCOC)c4)c(C(C)C)c3c2)CC1 [Example 160, 2-(4-(3-isopropyl-2-(1-(2-methoxyethyl)-5-methyl-6-oxo-1,6-dihydropyridin-3-yl)-1H-indol-5-yl)piperidin-1-yl)-N-methylacetamide]	8.9	14.5	14.7
Cc1cc(-c2[nH]c3ccc(C4CCN(C)CC4)cc3c2C(C)C)cn(CC(F)F)c1=O [Example 266, 1-(2,2-difluoroethyl)-5-(3-isopropyl-5-(1-methylpiperidin-4-yl)-1H-indol-2-yl)-3-methylpyridin-2(1H)-one]	11.6	15.8	4.48
CCn1nc(-c2[nH]c3ccc(C4CCNCC4)cc3c2C(C)C)cc(C)c1=O [Example 18, 2-ethyl-6-(3-isopropyl-5-(piperidin-4-yl)-1H-indol-2-yl)-4-methylpyridazin-3(2H)-one]	18.3	14.7	6.65
CCCN1CCC(c2ccc3[nH]c(-c4cc(-c5cnc(OC)nc5)c(=O)n(C)c4)c(C(C)C)c3c2)CC1 [Example 331, 5-(3-isopropyl-5-(1-propylpiperidin-4-yl)-1H-indol-2-yl)-3-(2-methoxypyrimidin-5-yl)-1-methylpyridin-2(1H)-one]	6.3	9.6	2.71
Cc1c(-c2[nH]c3ccc(C4CCN(C(=O)C(F)(F)F)CC4)cc3c2C(C)C)cn(C)c(=O)c1Cl [Example 302, 3-chloro-5-(3-isopropyl-5-(1-(2,2,2-trifluoroacetyl)piperidin-4-yl)-1H-indol-2-yl)-1,4-dimethylpyridin-2(1H)-one]	20.4	214	≥ 50
Cc1cc(-c2[nH]c3ccc(C4CCN(CC(=O)NC[C@@H](C)O)CC4)cc3c2C(C)C)cn(C)c1=O [Example 125, (R)-2-(4-(2-(1,5-dimethyl-6-oxo-1,6-dihydropyridin-3-yl)-3-isopropyl-1H-indol-5-yl)piperidin-1-yl)-N-(2-hydroxypropyl)acetamide]	–	289	≥ 50
CCCN1CCC(c2ccc3[nH]c(-c4cc(N5CCCCC5)c(=O)n(C)c4)c(C(C)C)c3c2)CC1 [Example 173, 5-(3-isopropyl-5-(1-propylpiperidin-4-yl)-1H-indol-2-yl)-1-methyl-3-(piperidin-1-yl) pyridin-2(1H)-one]	–	983	6.61
Cc1cc(-c2[nH]c3ccc(C4CCN(CC(=O)NC[C@H](C)O)CC4)cc3c2C(C)C)cn(C)c1=O [Example 126, (S)-2-(4-(2-(1,5-dimethyl-6-oxo-1,6-dihydropyridin-3-yl)-3-isopropyl-1H-indol-5-yl)piperidin-1-yl)-N-(2-hydroxypropyl)acetamide]	–	631	≥ 50
CC(C)c1c(-c2cc(C(=O)N(C)C)c(=O)n(C)c2)[nH]c2ccc(C3CCNCC3)cc12 [Example 63, 5-(3-isopropyl-5-(piperidin-4-yl)-1H-indol-2-yl)-N,N,1-trimethyl-2-oxo-1,2-dihydropyridine-3-carboxamide]	–	–	≥ 50
CC(C)c1c(-c2cc(CCC3CC3)c(=O)n(C)c2)[nH]c2ccc(C3CCNCC3)cc12 [Example 62, 3-(2-cyclopropylethyl)-5-(3-isopropyl-5-(piperidin-4-yl)-1H-indol-2-yl)-1-methylpyridin-2(1H)-one]	–	–	≥ 50
